Measured values as given in patent US11332463B2, “Spiropiperidine allosteric modulators of nicotinic acetylcholine receptors” (Merck Sharp & Dohme Corp., priority 2018, dated 2022).
Read-outs that look alike come from different tables or passages of the source.

Target: T1, human α7 nicotinic acetylcholine receptor (HEK cell line stably expressing human RIC-3 and human α7) (Homo sapiens, UniProt P36544)
T1 construct: host or cells: HEK cell line (PrecisION hnAChR α7/RIC-3)
Experiment: Automated patch-clamp electrophysiology functional assay (Assay A), IonFlux HT, whole-cell population patch
Format: cell-based

[1] = HEK cells expressing human α7/RIC-3, test compound with or without 40 μM acetylcholine, holding potential −60 mV, room temperature, read-out: α7 nAChR Potency
[2] = automated patch-clamp electrophysiology functional assay (Assay A), read-out: α7 nAChR EC50

T1 sequence (P36544 23-502): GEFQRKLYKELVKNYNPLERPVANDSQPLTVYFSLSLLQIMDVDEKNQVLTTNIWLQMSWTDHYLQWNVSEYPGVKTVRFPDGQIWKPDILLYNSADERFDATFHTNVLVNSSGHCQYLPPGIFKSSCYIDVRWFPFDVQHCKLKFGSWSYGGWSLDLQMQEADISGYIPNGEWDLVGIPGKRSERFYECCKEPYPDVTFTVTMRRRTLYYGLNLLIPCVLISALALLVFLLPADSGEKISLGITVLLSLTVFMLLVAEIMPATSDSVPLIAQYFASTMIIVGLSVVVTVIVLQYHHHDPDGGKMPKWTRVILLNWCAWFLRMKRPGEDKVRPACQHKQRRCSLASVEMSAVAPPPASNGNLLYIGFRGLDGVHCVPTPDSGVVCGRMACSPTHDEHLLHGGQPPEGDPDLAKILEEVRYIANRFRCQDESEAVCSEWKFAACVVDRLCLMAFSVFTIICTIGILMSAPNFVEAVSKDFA

SMILES | EC50 [1] | EC50 [2] | EC50 (α7 nAChR EC50 (nM), automated patch-clamp electrophysiology functional assay (Assay A)) | EC50 (α7 nAChR Potency, HEK cells expressing human α7/RIC-3, test compound with or without 40 μM acetylcholine, holding potential −60 mV, room temperature)
NS(=O)(=O)N1CCC2(CC1)[C@H](c1noc(-c3ccnc(OC(F)F)c3)n1)C2(F)F [Example 10, (2R)-2-{5-[2-(Difluoromethoxy)pyridin-4-yl]-1,2,4-oxadiazol-3-yl}-1,1-difluoro-6-azaspiro[2.5]octane-6-sulfonamide] | 100 to 500 nM | 220 nM | – | –
N#Cc1ccccc1-c1nc([C@@H]2CC23CCN(S(N)(=O)=O)CC3)no1 [Example D3] | 5000 to 50000 nM | 5300 nM | – | –
NS(=O)(=O)N1CCC2(CC1)C[C@H]2c1noc(-c2ccccc2C(F)(F)F)n1 [Example D17] | 500 to 5000 nM | 630 nM | – | –
NS(=O)(=O)N1CCC2(CC1)[C@@H](c1nc(C3CCCCC3)no1)C2(F)F [Example H3] | 500 to 5000 nM | 4500 nM | – | –
Cc1onc(C2CC2)c1-c1nnc([C@@H]2CC23CCN(S(N)(=O)=O)CC3)s1 [Example F12] | 500 to 5000 nM | 850 nM | – | –
NS(=O)(=O)N1CCC2(CC1)C[C@H]2c1noc(Cc2cc(C(F)(F)F)ccc2F)n1 [Example E5] | 500 to 5000 nM | – | – | –
NS(=O)(=O)N1CCC2(CC1)C(c1nc(-c3ccnc(C(F)(F)F)c3)no1)C2(F)F (stereo not shown) [Example C8] | 500 to 5000 nM | 1300 nM | – | –
NS(=O)(=O)N1CCC2(CC1)C[C@H]2c1nc(-c2conc2C2CC2)co1 [Example 23, (1R)-1-[4-(3-Cyclopropylisoxazol-4-yl)-1,3-oxazol-2-yl]-6-azaspiro[2.5]octane-6-sulfonamide] | 500 to 5000 nM | 1400 nM | – | –
NS(=O)(=O)N1CCC2(CC1)C[C@H]2c1noc(-c2ccc(F)cc2OC(F)F)n1 [Example D24] | 100 to 500 nM | 240 nM | – | –
NS(=O)(=O)N1CCC2(CC1)C[C@H]2c1noc(-c2ccc(OCC(F)(F)F)nc2)n1 [Example E63] | 500 to 5000 nM | – | – | –
Cc1ccc(C)c(-c2noc([C@@H]3C(F)(F)C34CCN(S(C)(=O)=O)CC4)n2)c1 (stereo in doubt) [Example 32, 2-[3-(2,5-Dimethylphenyl)-1,2,4-oxadiazol-5-yl]-1,1-difluoro-6-(methylsulfonyl)-6-azaspiro[2.5]octane] | 500 to 5000 nM | 910 nM | – | –
NS(=O)(=O)N1CCC2(CC1)[C@H](c1noc(-c3c4c(nn3C3CC3)CCCC4)n1)C2(F)F [Example E47] | 100 to 500 nM | – | – | –
NS(=O)(=O)N1CCC2(CC1)C(c1noc(-c3ccccc3C3CC3)n1)C2(F)F (stereo not shown) [Example D26] | < 100 nM | 13 nM | – | –
Cc1ncccc1-c1noc(C2C(F)(F)C23CCN(S(N)(=O)=O)CC3)n1 (stereo not shown) [Example C7] | 500 to 5000 nM | 1100 nM | – | –
NS(=O)(=O)N1CCC2(CC1)C[C@H]2c1noc(-c2ccccc2Oc2ccccc2)n1 [Example E71] | 100 to 500 nM | 360 nM | – | –
NS(=O)(=O)N1CCC2(CC1)C[C@H]2c1noc(-c2cc(Cl)ccc2OC(F)(F)F)n1 [Example D22] | 100 to 500 nM | 410 nM | – | –
NS(=O)(=O)N1CCC2(CC1)C[C@H]2c1noc(-c2cncc(OCC(F)(F)F)c2)n1 [Example E60] | 500 to 5000 nM | 2300 nM | – | –
NS(=O)(=O)N1CCC2(CC1)C[C@H]2c1noc(-c2ncccc2OCC(F)(F)F)n1 [Example E78] | 500 to 5000 nM | 1200 nM | – | –
NS(=O)(=O)N1CCC2(CC1)[C@H](c1nc(-c3ccnn3CC(F)(F)F)no1)C2(F)F [Example 12, (2R)-1,1-Difluoro-2-{3-[1-(2,2,2-trifluoroethyl)-1H-pyrazol-5-yl]-1,2,4-oxadiazol-5-yl}-6-azaspiro[2.5]octane-6-sulfonamide] | 100 to 500 nM | 220 nM | – | –
Cc1ccc(C(F)(F)F)cc1-c1nc([C@@H]2CC23CCN(S(N)(=O)=O)CC3)no1 [Example 1, (1R)-1-{5-[2-Methyl-5-(trifluoromethyl)phenyl]-1,2,4-oxadiazol-3-yl}-6-azaspiro[2.5]octane-6-sulfonamide] | < 100 nM | 98 nM | – | –
Cn1nc(-c2nc([C@@H]3C(F)(F)C34CCN(S(N)(=O)=O)CC4)no2)c2c1CCC2 [Example E44] | 100 to 500 nM | – | – | –
CC(C)(O)c1ccc(-c2nc([C@@H]3CC34CCN(S(N)(=O)=O)CC4)no2)cc1 [Example D23] | 500 to 5000 nM | 1400 nM | – | –
NS(=O)(=O)N1CCC2(CC1)[C@H](c1nsc(-c3ccc(F)cc3C(F)(F)F)n1)C2(F)F (stereo in doubt) [Example 37, 1,1-Difluoro-2-{5-[4-fluoro-2-(trifluoromethyl)phenyl]-1,2,4-thiadiazol-3-yl}-6-azaspiro[2.5]octane-6-sulfonamide] | 500 to 5000 nM | 1200 nM | – | –
Cc1nn(C)c(-c2nc([C@@H]3C(F)(F)C34CCN(S(N)(=O)=O)CC4)no2)c1C [Example 22, (2R)-1,1-Difluoro-2-[5-(1,3,4-trimethyl-1H-pyrazol-5-yl)-1,2,4-oxadiazol-3-yl]-6-azaspiro[2.5]octane-6-sulfonamide] | < 100 nM | 99 nM | – | –
NS(=O)(=O)N1CCC2(CC1)C[C@H]2c1cnn(-c2cccc(OC(F)(F)F)c2)c1 [Example 15, (1R)-1-{1-[3-(Trifluoromethoxy)phenyl]-1H-pyrazol-4-yl}-6-azaspiro[2.5]octane-6-sulfonamide] | 100 to 500 nM | 330 nM | – | –

SMILES | EC50 [1] | EC50 [2] | EC50 (α7 nAChR EC50 (nM), automated patch-clamp electrophysiology functional assay (Assay A)) | EC50 (α7 nAChR Potency, HEK cells expressing human α7/RIC-3, test compound with or without 40 μM acetylcholine, holding potential −60 mV, room temperature)
NS(=O)(=O)N1CCC2(CC1)C[C@H]2c1noc(-c2ccccc2)n1 [Example D8] | 500 to 5000 nM | 1300 nM | – | –
Cn1nc2c(c1-c1nc([C@@H]3C(F)(F)C34CCN(S(N)(=O)=O)CC4)no1)CCC2 [Example 20, (2R)-1,1-Difluoro-2-[5-(2-methyl-2,4,5,6-tetrahydrocyclopenta[c]pyrazol-3-yl)-1,2,4-oxadiazol-3-yl]-6-azaspiro[2.5]octane-6-sulfonamide] | < 100 nM | 98 nM | – | –
CC1CN(S(N)(=O)=O)CCC12CC2c1nc(-c2ccnc(OCC(F)(F)F)c2)no1 (single isomer, unassigned) [Example I5] | 500 to 5000 nM | 1200 nM | – | –
NS(=O)(=O)N1CCC2(CC1)[C@H](c1noc(-c3cc(C(F)(F)F)n(C4CC4)n3)n1)C2(F)F [Example E46] | 500 to 5000 nM | 510 nM | – | –
CC1CCCC(c2nc([C@@H]3CC34CCN(S(N)(=O)=O)CC4)no2)C1 (mixture of isomers) [Example E7] | 500 to 5000 nM | 3400 nM | – | –
NS(=O)(=O)N1CCC2(CC2c2nc(-c3cccc(OC(F)F)c3)no2)C(F)C1 (single isomer, unassigned) [Example I1] | 500 to 5000 nM | 750 nM | – | –
NS(=O)(=O)N1CCC2(CC1)CC2c1nc(-c2ccnc(N3CCCC3)c2)no1 (racemic) [Example C2] | 500 to 5000 nM | – | – | –
NS(=O)(=O)N1CCC2(CC2c2nc(-c3conc3C3CC3)no2)C(F)C1 (single isomer, unassigned) [Example I8] | 5000 to 50000 nM | – | – | –
COc1ccc(Cl)cc1-c1noc(C2CC23CCN(S(=O)(=O)c2c(O)no[n+]2C)CC3)n1 (racemic) [Example B8] | 500 to 5000 nM | – | – | –
COc1ccc(Cl)cc1-c1noc(C2CC23CCN(C(=O)NC(C)(C)C)CC3)n1 (racemic) [Example B9] | 5000 to 50000 nM | 5400 nM | – | –
NS(=O)(=O)N1CCC2(CC1)C[C@H]2c1nnc(-c2cccc(OC(F)F)c2)s1 [Example F10] | – | – | 450 nM | 100 to 500 nM
Cc1c(-c2nc([C@@H]3C(F)(F)C34CCN(S(N)(=O)=O)CC4)no2)c(C(F)(F)F)nn1C1CC1 [Example E54] | 100 to 500 nM | 500 nM | – | –
NS(=O)(=O)N1CCC2(C(F)C1)C(c1nc(-c3ccc(F)cc3C(F)(F)F)no1)C2(F)F (stereo not shown) [Example I16] | 500 to 5000 nM | 2100 nM | – | –
NS(=O)(=O)N1CCC2(CC1)[C@H](c1noc(-c3cc(C(F)(F)F)nn3C3CC3)n1)C2(F)F [Example 29, (2R)-2-{5-[1-Cyclopropyl-3-(trifluoromethyl)-1H-pyrazol-5-yl]-1,2,4-oxadiazol-3-yl}-1,1-difluoro-6-azaspiro[2.5]octane-6-sulfonamide] | 100 to 500 nM | 170 nM | – | –
NS(=O)(=O)N1CCC2(CC1)[C@H](c1coc(-c3ccnc(OC(F)F)c3)n1)C2(F)F [Example 35, (2R)-2-{2-[2-(Difluoromethoxy)pyridin-4-yl]-1,3-oxazol-4-yl}-1,1-difluoro-6-azaspiro[2.5]octane-6-sulfonamide] | 100 to 500 nM | 150 nM | – | –
NS(=O)(=O)N1CCC2(CC1)C[C@H]2c1noc(-c2cccc(OC(F)F)c2)n1 [Example D11] | 500 to 5000 nM | 510 nM | – | –
CC(c1nc([C@@H]2CC23CCN(S(N)(=O)=O)CC3)no1)c1ccccc1Cl (mixture of isomers) [Example E8] | 500 to 5000 nM | 3900 nM | – | –
COc1ccc(Cl)cc1-c1noc(C2CC23CCN(S(C)(=O)=O)CC3)n1 (racemic) [Example B14] | 500 to 5000 nM | 1100 nM | – | –
NS(=O)(=O)N1CCC2(CC1)[C@H](c1noc(-c3ccccn3)n1)C2(F)F [Example E67] | 500 to 5000 nM | 2100 nM | – | –
NS(=O)(=O)N1CCC2(CC1)C[C@H]2c1noc(-c2cc(F)ccc2OC(F)(F)F)n1 [Example D21] | 100 to 500 nM | 240 nM | – | –
Cc1ccccc1-c1nc([C@@H]2CC23CCN(S(N)(=O)=O)CC3)no1 [Example 33, (1R)-1-[5-(2-Methylphenyl)-1,2,4-oxadiazol-3-yl]-6-azaspiro[2.5]octane-6-sulfonamide] | 100 to 500 nM | 390 nM | – | –
NS(=O)(=O)N1CCC2(CC1)C[C@H]2c1noc(C2CCCCC23CC3)n1 (mixture of isomers) [Example E11] | 500 to 5000 nM | 4300 nM | – | –
NS(=O)(=O)N1CCC2(CC1)C[C@H]2c1noc(Cc2ccc(F)cc2C(F)(F)F)n1 [Example E12] | 500 to 5000 nM | 3700 nM | – | –
NS(=O)(=O)N1CCC2(CC1)CC2c1nc(-c2conc2C2CC2)no1 (stereo not shown) [Example C4] | 500 to 5000 nM | 1100 nM | – | –
